Reference: article PMC10791743, “Selective CK1α degraders exert antiproliferative activity against a broad range of human cancer cell lines” (Nature Communications, 2024)
“And” between values parts separate entries of the source, which are not always exact repeats. Identical values can stand only once.

Tests used:
[1] = test system: panel of 9 human cancer cell lines (HD-MB03, MB004, MB002, MHH-CALL4, MOLM-13, TF-1, HEL, OCI-AML3, AML193); experiment: Molecular glue library screening, CellTiter-Glo cell viability, 72 h; assay type: cell-based; conditions: CTG, dose-response
Procedure: We screened our molecular glue library (3630 compounds) against a panel of 9 pediatric cancer cell lines to identify molecules displaying cell-selective sensitivities. In addition to the four cell lines we previously described (MB002, MB004, HD-MB03, and MHHCALL-4)[27], we included five additional AML cell lines (MOLM-13, TF-1, HEL, OCI-AML3, and AML193) to cover a broader range of genetic diversity and cancer vulnerabilities. The library screening was performed in high throughput (384-well plates) by incubating the cells with compounds for 72 h and assessing cell viability via CellTiter-Glo (CTG) in a dose–response manner, as reported previously.
The primary screen was performed in 384-well format using the CellTiter Glo (CTG) luminescent cell viability assay (Promega) as previously described. 3630 compounds from the St. Jude proprietary molecular glue library were screened against 9 human cancer cell lines (HD-MB03, MB004, MB002, MHH-CALL4, MOLM-13, TF-1, HEL, OCI-AML3, AML193). Each cell line was cultured in the complete medium recommended by the vendor and seeded in Corning 8804 BC white 384-well assay plates at densities of 1000, 1000, 1500, 7500, 1250, 156, 625, 1250, 1250 cells per well for HD-MB03, MB004, MB002, MHH-CALL4, MOLM-13, TF-1, HEL, OCI-AML, AML193, respectively. After overnight incubation at 37 °C in a humidified 5% CO2 incubator, cells were treated with compounds in dose–response format using a Pintool on a Biomek FX^P Laboratory Automation Workstation (Beckman Coulter). After 72 h of incubation, cell proliferation was assessed using a CellTiter-Glo (CTG) luminescent cell viability assay (Promega) according to the manufacturer’s instructions. Luminescence signal was measured using an EnVision plate reader (PerkinElmer).

MOLM-13 cells = experiment: MOLM-13 cell viability assay (CTG, 72 h); assay type: cell-based, human; set-up: key to Cell viability in MOLM-13 cells / cell viability, dose-response replicate values: % viability = 100 − % activity, normalized to controls; conditions: for Cell viability in MOLM-13 cells: Lenalidomide series
Procedure: The primary screen was performed in 384-well format using the CellTiter Glo (CTG) luminescent cell viability assay (Promega) as previously described. […] After overnight incubation at 37 °C in a humidified 5% CO2 incubator, cells were treated with compounds in dose–response format using a Pintool on a Biomek FX^P Laboratory Automation Workstation (Beckman Coulter). […] Luminescence signal was measured using an EnVision plate reader (PerkinElmer). […]
number per well and incubated overnight at 37 °C in a humidified 5 % CO2 incubator. Compounds were transferred to the assay plate from a dose-response plate using a Labcyte Echo 650 Acoustic Liquid Handler (Beckman Coulter , USA). […]
using Promega’s CellTiter-Glo reagent according to the manufacturer’s recommendation.
Luminescence was measured on the Envision plate reader (PerkinElmer, USA). Raw luminescence relative light unit (RLU) values for each compound at each concentration were normalized to obtain % activity using the following equation (1): 100 × [(mean(negctrl) – compound)/(mean (negctrl) – mean (posctrl))]. The % activity was converted to % viability using the following equation (2):
(100 – % activity), and then pooled from replicate experiments prior to fitting. Here, negctrl and posctrl refer to the negative (DMSO) and positive controls (staurosporine) on each plate. Dose-response curves were fit to the Hill equation using the GraphPad Prism (version 10). […]

Nc1cccc2c1CN(C1CCC(=O)NC1=O)C2=O (centres unmarked) [lenalidomide, reference compound]
Cell viability across the panel of AL and MB cell lines [1]: inactive
Effect on MOLM-13 cell viability (cytotoxicity) (MOLM-13 cells; CTG 72 h): did not show appreciable cytotoxicity
Cell viability in MOLM-13 cells (MOLM-13 cells; Conc 0.00055545): 109.633 and 88.9306 and 94.0401
Cell viability in MOLM-13 cells (MOLM-13 cells; Conc 0.00166636): 93.576 and 90.3639 and 96.1559
Cell viability in MOLM-13 cells (MOLM-13 cells; Conc 0.00499909): 90.3167 and 93.3429 and 87.1
Cell viability in MOLM-13 cells (MOLM-13 cells; Conc 0.0149973): 104.685 and 79.7406 and 92.7317
Cell viability in MOLM-13 cells (MOLM-13 cells; Conc 0.0449918): 87.2291 and 84.4121 and 81.9827
Cell viability in MOLM-13 cells (MOLM-13 cells; Conc 0.134975): 84.7339 and 87.0092 and 84.0481
Cell viability in MOLM-13 cells (MOLM-13 cells; Conc 0.404926): 83.6134 and 73.5361 and 80.3173
Cell viability in MOLM-13 cells (MOLM-13 cells; Conc 1.21478): 75.0522 and 81.9691 and 77.2827
Cell viability in MOLM-13 cells (MOLM-13 cells; Conc 3.64433): 84.7767 and 72.5751 and 71.171
